Results from patent US11642346B2, “Combination therapy for treating cancer” (Epizyme, Inc., priority 2017, dated 2023).

Columns and labels:
[1] = system: CHLA-266 cells; experiment: Combination of tazemetostat with other agents, pretreatment model, luminescent cell viability (ATP) assay; type: cell-based; conditions: pretreatment model: 4 days tazemetostat, then 4 days agent alone or with tazemetostat, synergy by Loewe Volume, Fa-CI plots
Protocol: (§1) Proliferation data was read for luminescence. Calculations of synergy were performed using the Loewe Volume (Chalice Software) and Fa-CI plots were generated with Calcusyn.

[2] = system: BT-12 cells; experiment: as above; type: cell-based; conditions: pretreatment model: 4 days tazemetostat, then 4 days agent alone or with tazemetostat, synergy by Loewe Volume, Fa-CI plots
Protocol: as §1

[3] = system: A204 cells; experiment: Combination of tazemetostat with other agents, co-treatment model, luminescent cell viability (ATP) assay; type: cell-based; conditions: grown for seven days
Description: (§2) Proliferation data was read for luminescence.

[4] = system: G401 cells; experiment: as above; type: cell-based; conditions: grown for seven days
Description: as §2

[5] = system: AT/RT and MRT cell lines; experiment: In vitro combination studies of tazemetostat in a panel of AT/RT and MRT cell lines; type: cell-based; conditions: cell line models of AT/RT and MRT
[6] = system: MRT; conditions: preclinical models of MRT; cited from earlier work
[7] = system: atypical teratoid rhabdoid tumor (AT/RT) cells; experiment: Tazemetostat pre-treatment followed by X-ray irradiation, 11 day clonogenic assay; type: cell-based; conditions: primed seven days, X-ray 2 Gy
[8] = system: CHLA-266 cells; experiment: Antiproliferative activity of tazemetostat, 2D culture, luminescent cell viability assay; type: cell-based; conditions: 0.08-10 μM, days 4, 6, 7, 11 and 15
Protocol: (§3) Cell viability was measured in a luminescent cell viability assay and is represented by luminescence counts.

[9] = system: BT-12 cells; experiment: as above; type: cell-based; conditions: 0.08-10 μM, days 4, 6, 7, 11 and 15
Protocol: as §3

| SMILES | Combination treatment with tazemetostat, CHLA-266 [1] | Combination treatment with tazemetostat, BT-12 [2] | Combination treatment with tazemetostat, A204 [3] | Combination treatment with tazemetostat, G401 [4] | Antiproliferative effect of combination with tazemetostat [5] | also measured |
| --- | --- | --- | --- | --- | --- | --- |
| N.N.O=C([O-])C1(C(=O)[O-])CCC1.[Pt+2] [Carboplatin] | Additive | Additive | Additive |  |  |  |
| COc1cc([C@@H]2c3cc4c(cc3[C@@H](O[C@@H]3O[C@@H]5CO[C@@H](C)O[C@H]5[C@H](O)[C@H]3O)[C@H]3COC(=O)[C@H]23)OCO4)cc(OC)c1O [Etoposide] | Additive | Additive | Additive | Synergy |  |  |
| CC[C@@]1(O)C(=O)OCc2c1cc1n(c2=O)Cc2cc3c(CN(C)C)c(O)ccc3nc2-1 [Topotecan] | Synergy | Synergy | Additive | Synergy | synergistic interactions |  |
| CO[C@H]1C[C@@H]2CC[C@@H](C)[C@@](O)(O2)C(=O)C(=O)N2CCCC[C@H]2C(=O)O[C@H]([C@H](C)C[C@@H]2CC[C@@H](OCCO)[C@H](OC)C2)CC(=O)[C@H](C)/C=C(\C)[C@@H](O)[C@@H](OC)C(=O)[C@H](C)C[C@H](C)/C=C/C=C/C=C/1C [Everolimus] | Synergy | Synergy | Additive | Additive |  |  |
| COc1cc(Nc2ncc3c(n2)-c2ccc(Cl)cc2C(c2c(F)cccc2OC)=NC3)ccc1C(=O)O [Alisertib] | Synergy | Synergy | Additive | Additive | Synergistic activity | Combination treatment with tazemetostat, CHLA-266 ([1]; listed as alisertib): synergy; Combination treatment with tazemetostat, BT-12 ([2]; listed as alisertib): synergy; Combination treatment with tazemetostat, G401 ([4]; listed as alisertib): synergy; Combination treatment with tazemetostat, A204 ([3]; listed as alisertib): synergy |
| COc1cccc2c1C(=O)c1c(O)c3c(c(O)c1C2=O)C[C@@](O)(C(=O)CO)C[C@@H]3O[C@H]1C[C@H](N)[C@H](O)[C@H](C)O1 [Doxorubicin] | Synergy | Synergy | Additive | Additive | Synergistic activity | Combination treatment with tazemetostat, CHLA-266 ([1]; listed as doxorubicin): synergy; Combination treatment with tazemetostat, BT-12 ([2]; listed as doxorubicin): synergy; Combination treatment with tazemetostat, G401 ([4]; listed as doxorubicin): synergy; Combination treatment with tazemetostat, A204 ([3]; listed as doxorubicin): synergy |
| CC[C@]1(O)C[C@H]2CN(CCc3c([nH]c4ccccc34)[C@@](C(=O)OC)(c3cc4c(cc3OC)N(C=O)[C@H]3[C@@](O)(C(=O)OC)[C@H](OC(C)=O)[C@]5(CC)C=CCN6CC[C@]43[C@@H]65)C2)C1 [Vincristine] | Synergy | Synergy | Synergy |  | Synergistic activity | Combination treatment with tazemetostat, CHLA-266 ([1]; listed as vincristine): synergy; Combination treatment with tazemetostat, BT-12 ([2]; listed as vincristine): synergy; Combination treatment with tazemetostat, G401 ([4]; listed as vincristine): synergy; Combination treatment with tazemetostat, A204 ([3]; listed as vincristine): synergy |
| Nc1ccn([C@@H]2O[C@H](CO)[C@@H](O)[C@@H]2O)c(=O)n1 [Cytarabine/Ara-C, Cytarabine] | Additive | Synergy | Additive | Additive |  |  |
| Nc1ccccc1NC(=O)c1ccc(CNC(=O)OCc2cccnc2)cc1 [Entinostat] | Synergy | Synergy | Additive | Synergy | enhanced the antiproliferative effect | Combination treatment with tazemetostat, CHLA-266 ([1]; listed as entinostat): synergy; Combination treatment with tazemetostat, BT-12 ([2]; listed as entinostat): synergy; Combination treatment with tazemetostat, G401 ([4]; listed as entinostat): synergy; Combination treatment with tazemetostat, A204 ([3]; listed as entinostat): synergy |
| CCN(c1cc(-c2ccc(CN3CCOCC3)cc2)cc(C(=O)NCc2c(C)cc(C)[nH]c2=O)c1C)C1CCOCC1 [tazemetostat] |  |  |  |  |  | Tumor response to tazemetostat treatment [6]: robust tumor regressions; Clonogenic survival, tazemetostat priming prior to X-ray irradiation [7]: reduction in clonogenic survival; Cell death / cell viability [8]: Time and dose dependent increases in cell death; Cell death / cell viability [9]: Time and dose dependent increases in cell death |
